Reference: PMC8934569 (Cancer chemotherapy and pharmacology, 2021)

Assay: Drug-related adverse events graded by NCI CTCAE version 4.0
Format: in vivo, human
[1] = Group 1 N=31: veliparib Days 1-4 + cyclophosphamide Day 3
[2] = Group 2 N=22: veliparib Days 1-4 + AC Day 3

C[C@]1(c2nc3c(C(N)=O)cccc3[nH]2)CCCN1 [veliparib, 2-[(R)-2-methylpyrrolidin-2-yl]-1H-benzimidazole-4-carboxamide]
Anemia, All Grades [1]: 8 (26) n (%) | Anemia, Gr 3 [1]: 2 (6) n (%) | Anemia, Gr 4 [1]: 0 (0) n (%) | Anorexia, All Grades [1]: 0 (0) n (%) | Anorexia, Gr 3 [1]: 0 (0) n (%) | Anorexia, Gr 4 [1]: 0 (0) n (%) | Dehydration, All Grades [1]: 0 (0) n (%) | Dehydration, Gr 3 [1]: 0 (0) n (%) | Dehydration, Gr 4 [1]: 0 (0) n (%) | Fatigue, All Grades [1]: 12 (39) n (%) | Fatigue, Gr 3 [1]: 1 (3) n (%) | Fatigue, Gr 4 [1]: 0 (0) n (%) | Febrile neutropenia, All Grades [1]: 1 (3) n (%) | Febrile neutropenia, Gr 3 [1]: 1 (3) n (%) | Febrile neutropenia, Gr 4 [1]: 0 (0) n (%) | Hyponatremia, All Grades [1]: 0 (0) n (%) | Hyponatremia, Gr 3 [1]: 0 (0) n (%) | Hyponatremia, Gr 4 [1]: 0 (0) n (%) | Hypophosphatemia, All Grades [1]: 1 (3) n (%) | Hypophosphatemia, Gr 3 [1]: 1 (3) n (%) | Hypophosphatemia, Gr 4 [1]: 0 (0) n (%) | Hypotension, All Grades [1]: 1 (3) n (%) | Hypotension, Gr 3 [1]: 1 (3) n (%) | Hypotension, Gr 4 [1]: 0 (0) n (%) | Lymphocyte count decreased, All Grades [1]: 8 (26) n (%) | Lymphocyte count decreased, Gr 3 [1]: 4 (13) n (%) | Lymphocyte count decreased, Gr 4 [1]: 2 (6) n (%) | Nausea, All Grades [1]: 5 (16) n (%) | Nausea, Gr 3 [1]: 0 (0) n (%) | Nausea, Gr 4 [1]: 0 (0) n (%) | Neutrophil count decreased, All Grades [1]: 11 (35) n (%) | Neutrophil count decreased, Gr 3 [1]: 4 (13) n (%) | Neutrophil count decreased, Gr 4 [1]: 3 (10) n (%) | Platelet count decreased, All Grades [1]: 5 (16) n (%) | Platelet count decreased, Gr 3 [1]: 1 (3) n (%) | Platelet count decreased, Gr 4 [1]: 1 (3) n (%) | Sepsis, All Grades [1]: 0 (0) n (%) | Sepsis, Gr 3 [1]: 0 (0) n (%) | Sepsis, Gr 4 [1]: 0 (0) n (%) | Vomiting, All Grades [1]: 5 (16) n (%) | Vomiting, Gr 3 [1]: 0 (0) n (%) | Vomiting, Gr 4 [1]: 0 (0) n (%) | White blood cell decreased, All Grades [1]: 9 (29) n (%) | White blood cell decreased, Gr 3 [1]: 6 (19) n (%) | White blood cell decreased, Gr 4 [1]: 1 (3) n (%) | Anemia, All Grades [2]: 16 (73) n (%) | Anemia, Gr 3 [2]: 4 (18) n (%) | Anemia, Gr 4 [2]: 0 (0) n (%) | Anorexia, All Grades [2]: 5 (23) n (%) | Anorexia, Gr 3 [2]: 0 (0) n (%) | Anorexia, Gr 4 [2]: 0 (0) n (%) | Dehydration, All Grades [2]: 1 (5) n (%) | Dehydration, Gr 3 [2]: 1 (5) n (%) | Dehydration, Gr 4 [2]: 0 (0) n (%) | Fatigue, All Grades [2]: 16 (73) n (%) | Fatigue, Gr 3 [2]: 0 (0) n (%) | Fatigue, Gr 4 [2]: 0 (0) n (%) | Febrile neutropenia, All Grades [2]: 3 (14) n (%) | Febrile neutropenia, Gr 3 [2]: 2 (9) n (%) | Febrile neutropenia, Gr 4 [2]: 2 (9) n (%) | Hyponatremia, All Grades [2]: 1 (5) n (%) | Hyponatremia, Gr 3 [2]: 1 (5) n (%) | Hyponatremia, Gr 4 [2]: 0 (0) n (%) | Hypophosphatemia, All Grades [2]: 0 (0) n (%) | Hypophosphatemia, Gr 3 [2]: 0 (0) n (%) | Hypophosphatemia, Gr 4 [2]: 0 (0) n (%) | Hypotension, All Grades [2]: 0 (0) n (%) | Hypotension, Gr 3 [2]: 0 (0) n (%) | Hypotension, Gr 4 [2]: 0 (0) n (%) | Lymphocyte count decreased, All Grades [2]: 13 (59) n (%) | Lymphocyte count decreased, Gr 3 [2]: 10 (45) n (%) | Lymphocyte count decreased, Gr 4 [2]: 2 (9) n (%) | Nausea, All Grades [2]: 10 (45) n (%) | Nausea, Gr 3 [2]: 0 (0) n (%) | Nausea, Gr 4 [2]: 0 (0) n (%) | Neutrophil count decreased, All Grades [2]: 19 (86) n (%) | Neutrophil count decreased, Gr 3 [2]: 10 (45) n (%) | Neutrophil count decreased, Gr 4 [2]: 13 (59) n (%) | Platelet count decreased, All Grades [2]: 14 (64) n (%) | Platelet count decreased, Gr 3 [2]: 4 (18) n (%) | Platelet count decreased, Gr 4 [2]: 2 (9) n (%) | Sepsis, All Grades [2]: 1 (5) n (%) | Sepsis, Gr 3 [2]: 0 (0) n (%) | Sepsis, Gr 4 [2]: 1 (5) n (%)
